Read-outs that look alike come from different tables or passages of the source.
Key:
[1] = biological target: T1, human neutrophil elastase (HNE) (Homo sapiens, UniProt P08246); assay: Kinetic analysis of the inhibition of human neutrophil elastase (Lineweaver-Burk, Dixon, secondary plots); format: biochemical; conditions: for Inhibition Type: Lineweaver-Burk and Dixon analysis; for Kis (enzyme-substrate-inhibitor dissociation constant): secondary plot of intercept versus inhibitor concentration; for Ki: secondary plot of slope versus inhibitor concentration, read-out: Ki (enzyme-inhibitor dissociation constant)
T1 sequence (P08246 30-267): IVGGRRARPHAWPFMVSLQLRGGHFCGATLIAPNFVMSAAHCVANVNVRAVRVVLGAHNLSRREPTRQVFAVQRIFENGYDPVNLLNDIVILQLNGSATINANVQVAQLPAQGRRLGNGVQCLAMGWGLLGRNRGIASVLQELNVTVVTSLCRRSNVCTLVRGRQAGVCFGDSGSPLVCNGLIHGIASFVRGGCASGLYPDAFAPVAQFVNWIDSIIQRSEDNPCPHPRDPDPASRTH
Protocol: Next, kinetic analysis of the mechanism of inhibition of human neutrophil elastase by thiazoles 3a–3j was determined using double-reciprocal plots of Lineweaver-Burk plots and Dixon analysis.
The first model is one in which the inhibitor binds better to the free enzyme (competitive mechanism), while the second model is one in which the inhibitor binds better to the enzyme-substrate complex (non-competitive mechanism). Next the secondary plots of slope versus concentration of test compounds were plotted to determine the enzyme-inhibitor dissociation constants Ki, and similarly as was used to determine enzyme-substrate-inhibitor dissociation constants Kis, the secondary plots of intercept versus concentration of tested compounds were plotted.
Kinetic studies were conducted in the presence of different concentrations of substrate (5, 25, 50 and 100 µM) and test compounds (in the range of 0–500 nM). The reaction conditions were the same as in the HNE inhibition assay and the reaction was monitored for 10 min at 25 °C with the same Ex an Em wavelengths. By Lineweaver–Burk plots, kinetic values such as the Michaelis–Menten constants and maximum velocity were determined. Next, two inhibition constants for inhibitor binding with free enzyme or enzyme–substrate complex (Ki and Kis) were obtained by plotting the secondary plot of the slopes of the determined straight lines or vertical intercept (1/Vmax) versus inhibitor concentration.

[2] = test system: normal mouse fibroblast (BALB/3T3) cells; assay: Antiproliferative assay (MTT or SRB), normal fibroblasts BALB/3T3; format: cell-based; conditions: Balb/3T3 normal mouse fibroblasts; read-out: IC50 ± SD, antiproliferative activity
Protocol: Anticancer drugs are toxic to cancer cells, but also show some toxicity to healthy cells. […] The selectivity indexes for thiazoles 3a–3j against MV4-11 and A-549 cells were in general much higher than for MDA-MB-231 and UMUC-3 cells.
(§1) Cell preparation, an in vitro antiproliferative assay, and MTT and SRB cytotoxic tests were performed according to the literature.

[3] = test system: lung carcinoma (A549) cells; assay: Antiproliferative assay (MTT or SRB), A549; format: cell-based, human; conditions: for IC50: A-549, read-out: IC50 ± SD, antiproliferative activity; for Calculated Selectivity Index SI: IC50 Balb/3T3 / IC50 A-549
Protocol: as §1

[4] = test system: human breast adenocarcinoma (MDA-MB-231) cells; assay: Antiproliferative assay (MTT or SRB), MDA-MB-231; format: cell-based; conditions: for IC50: MDA-MB-231, read-out: IC50 ± SD, antiproliferative activity; for Calculated Selectivity Index SI: IC50 Balb/3T3 / IC50 MDA-MB-231
Protocol: as §1

[5] = test system: urinary bladder carcinoma (UMUC-3) cells; assay: Antiproliferative assay (MTT or SRB), UMUC-3; format: cell-based, human; conditions: for IC50: UMUC-3, read-out: IC50 ± SD, antiproliferative activity; for Calculated Selectivity Index SI: IC50 Balb/3T3 / IC50 UMUC-3
Protocol: as §1

[6] = test system: human biphenotypic B myelomonocytic leukemia (MV4-11) cells; assay: Antiproliferative assay (MTT or SRB), MV4-11; format: cell-based; conditions: for IC50: MV-4-11, read-out: IC50 ± SD, antiproliferative activity; for Calculated Selectivity Index SI: IC50 Balb/3T3 / IC50 MV-4-11
Protocol: as §1

[7] = biological target: T1, human neutrophil elastase (HNE); assay: Human neutrophil elastase inhibition assay (spectrofluorimetric, MeOSuc-AAPV-AMC substrate)
Protocol: The inhibition of human neutrophil elastase was carried out by the spectrofluorimetric method using N-methoxysuccinyl-Ala-Ala-Pro-Val-7-amido-4-methylcoumarin (MeOSuc-AAPV-AMC) as substrate.

Row | Structure (SMILES) | Inhibition Type [1] | Kis (enzyme-substrate-inhibitor dissociation constant) [1] | Ki [1] | melting point | IC50 ([3]; Homo sapiens, A549) | IC50 ([4]; Homo sapiens) | IC50 ([5]; Homo sapiens, UMUC3) | IC50 ([6]; Homo sapiens, MV4-11) | IC50 [7] | IC50 [2] | Calculated Selectivity Index SI [3] | Calculated Selectivity Index SI [4] | Calculated Selectivity Index SI [5] | Calculated Selectivity Index SI [6] | IC50 [3] | IC50 [4] | IC50 [5] | IC50 [6]
1 | CCC1(CC)C(=O)N(c2ccc(-c3csc(Nc4ccc(Cl)cc4)n3)cc2)C1=O [3a, 1-(4-(2-(4-Chlorophenylamino)thiazol-4-yl)phenyl)-3,3-diethylazetidine-2,4-dione] | mixed | 426.00 nM | 0.59 µM | 164 to 166 °C | 7.01 ± 0.47 µM | 9.86 ± 0.94 µM | 10.7 ± 1.41 µM | 7.15 ± 0.94 µM | 0.227 ± 0.0351 µM | 10.9 ± 1.18 µM | 1.55 | 1.10 | 1.02 | 1.52 | – | – | – | –
2 | CCC1(CC)C(=O)N(c2ccc(-c3csc(Nc4ccc5[nH]ncc5c4)n3)cc2)C1=O [3g, 1-(4-(2-(1H-Indazol-5-ylamino)thiazol-4-yl)phenyl)-3,3-diethylazetidine-2,4-dione] | mixed type I inhibition | 171.25 nM | 0.137 µM | 186 to 188 °C | 5.59 ± 0.16 µM | 6.19 ± 0.42 µM | 7.89 ± 0.23 µM | 5.38 ± 0.46 µM | 0.312 ± 0.00576 µM | 6.03 ± 0.46 µM | 1.08 | 0.97 | 0.76 | 1.12 | – | – | – | –
3 | CCC1(CC)C(=O)N(c2ccc(-c3csc(Nc4c(Cl)cc(Cl)cc4Cl)n3)cc2)C1=O [3j, 3,3-Diethyl-1-(4-(2-(2,4,6-trichlorophenylamino)thiazol-4-yl)phenyl)azetidine-2,4-dione] | mixed | 38.00 nM | 0.209 µM | 78 to 80 °C | 6.21 ± 0.73 µM | 14.3 ± 3.45 µM | 25.3 ± 9.94 µM | 5.11 ± 1.42 µM | 0.249 ± 0.0328 µM | 34.5 ± 22.7 µM | 5.55 | 2.41 | 1.36 | 6.75 | – | – | – | –
4 | N.N.[Cl][Pt][Cl] [cisplatin, reference compound] | – | – | – | – | – | – | – | – | – | 8.04 ± 3.16 µM | – | – | – | – | 4.09 ± 1 µM | 19.4 ± 6.8 µM | 1.73 ± 0.17 µM | 1.33 ± 0.17 µM

More lines, in order of falling Ki [1], values ahead:

Row | Inhibition Type [1] | Kis (enzyme-substrate-inhibitor dissociation constant) [1] | Ki [1] | melting point | IC50 ([3]; Homo sapiens, A549) | IC50 ([4]; Homo sapiens) | IC50 ([5]; Homo sapiens, UMUC3) | IC50 ([6]; Homo sapiens, MV4-11) | IC50 [7] | Structure (SMILES) | IC50 [2] | Calculated Selectivity Index SI [3] | Calculated Selectivity Index SI [4] | Calculated Selectivity Index SI [5] | Calculated Selectivity Index SI [6] | IC50 [3] | IC50 [4] | IC50 [5] | IC50 [6]
5 | mixed | 425.00 nM | 0.597 µM | 170 to 172 °C | 6.42 ± 0.72 µM | 11.7 ± 3.7 µM | 10.7 ± 3.05 µM | 5.47 ± 1.52 µM | 0.168 ± 0.0181 µM | CCC1(CC)C(=O)N(c2ccc(-c3csc(Nc4ccc(C(F)(F)F)cc4)n3)cc2)C1=O [3i, 3,3-Diethyl-1-(4-(2-(4-(trifluoromethyl)phenylamino)thiazol-4-yl)phenyl)-azetidine-2,4-dione] | 10.1 ± 0.87 µM | 1.58 | 0.87 | 0.95 | 1.85 | – | – | – | –
6 | mixed type I inhibition | 426.00 nM | 0.144 µM | 140 to 143 °C | 7.28 ± 1.07 µM | 12.5 ± 1.79 µM | 19.7 ± 5.49 µM | 5.89 ± 1.67 µM | 0.244 ± 0.0194 µM | CCC1(CC)C(=O)N(c2ccc(-c3csc(Nc4cc(C)cc(C)c4)n3)cc2)C1=O [3f, 1-(4-(2-(3,5-Dimethylphenylamino)thiazol-4-yl)phenyl)-3,3-diethylazetidine-2,4-dione] | 23.8 ± 4.53 µM | 3.27 | 1.90 | 1.21 | 4.04 | – | – | – | –
7 | mixed | 49.33 nM | 0.138 µM | 162 to 164 °C | 15.3 ± 4.98 µM | 72.1 ± 26 µM | 62.7 ± 9.98 µM | 5.4 ± 2.06 µM | 0.11 ± 0.00441 µM | CCC1(CC)C(=O)N(c2ccc(-c3csc(Nc4c(F)c(F)c(F)c(F)c4F)n3)cc2)C1=O [3d, 3,3-Diethyl-1-(4-(2-(perfluorophenylamino)thiazol-4-yl)phenyl)azetidine-2,4-dione] | 46.5 ± 4.99 µM | 3.04 | 0.64 | 0.74 | 8.61 | – | – | – | –
8 | mixed | 65.50 nM | 0.0722 µM | 155 to 157 °C | 7.31 ± 0.46 µM | 9.34 ± 1.12 µM | 9.07 ± 0.49 µM | 5.92 ± 1.71 µM | 0.176 ± 0.0135 µM | CCC1(CC)C(=O)N(c2ccc(-c3csc(Nc4ccc(F)cc4)n3)cc2)C1=O [3b, 3,3-Diethyl-1-(4-(2-(4-fluorophenylamino)thiazol-4-yl)phenyl)azetidine-2,4-dione] | 11.5 ± 1.47 µM | 1.57 | 1.23 | 1.27 | 1.94 | – | – | – | –
9 | mixed type I inhibition | 46.50 nM | 0.0339 µM | 69 to 71 °C | 9.2 ± 1.36 µM | 14.6 ± 3.17 µM | 13.3 ± 1.81 µM | 6.64 ± 1.59 µM | 0.0446 ± 0.00604 µM | CCC1(CC)C(=O)N(c2ccc(-c3csc(Nc4cccc5ccccc45)n3)cc2)C1=O [3h, 3,3-Diethyl-1-(4-(2-(naphthalen-1-ylamino)thiazol-4-yl)phenyl)azetidine-2,4-dione] | 22.4 ± 8.62 µM | 2.44 | 1.53 | 1.69 | 3.38 | – | – | – | –

Source: article PMC9321231
